Where “and” joins values, the source holds several entries; their conditions need not be identical. Identical values can stand only once. Like-named read-outs stand apart in the source and are kept apart here.
What was measured:
[1] = system: HIV-1 replication in H9 cells; assay: HIV-1 replication inhibition in acutely infected H9 lymphocytes (p24 antigen ELISA); assay type: cell-based, HIV-1 (IIIB strain); settings: for anti-HIV activity in H9 cells (in words): acutely infected H9 cells
Experimental: HIV inhibition assay. The HIV inhibition was measured as described herein. Briefly, H9 cells, a T cell line, (3.5×10^6 cells/ml) were incubated in the presence or absence of HIV-1 (IIIB strain, 0.01-0.1 TCID50 /cell) for 1 hour at 37° C. Cells were washed thoroughly and resuspended at a final concentration of 2×10^5 cells/ml in the presence or absence of compound. After incubation for 3-4 days at 37° C., the cell density of uninfected cultures was determined by cell count to assess toxicity of the drug. An aliquot of each cell-free supernatant was assayed by p24 antigen ELISA to quantitate the amount of HIV-1 present in the infected cultures. Test compounds were considered to be active at a particular concentration if p24 antigen levels were less than 70% of infected, untreated controls and were nontoxic to uninfected H9 cells.
HIV Growth Inhibition Assay: The T cell line, H9, and the promonocytic cell line, U937, were maintained separately in continuous culture with complete medium (RPMI 1640 and […] fetal calf serum (FCS) at 5% CO2 and 37° C. Cell lines were used in experiments only when in log phase of growth; whereas, uninfected peripheral blood mononuclear cells (PBMCs) were first stimulated with PHA (1 μg/ml) for 3 days. All cell targets were incubated with HIV-1 (IIIB isolate, TCID50 10 ^4 IU/mi, at a multiplicity of infection of 0.1-0.01 IU/cell) for 1 hour at 37° C. and 5% CO2. The cell lines and PBMCs were washed thoroughly to remove unabsorbed virions and resuspended at 4×10^5 cells/ml in complete medium or complete medium with 10% v/v interleukin […] IL-2, respectively. Aliquots ( ml) were placed in wells of 24-well culture plates containing an equal volume of test compound (diluted in the appropriate culture medium). After incubation for 4 days at 37° C., cell density of uninfected cultures was determined by counting cells in a Coulter counter to assess toxicity of the test compound. A p24 antigen ELISA assay was used to determine the level of virus released in the medium of the HIV-infected cultures. The p24 antigen assay uses a HIV-1 anti-p24 specific monoclonal antibody as the capture antibody coated-on 96-well plates. Following a sample incubation period, rabbit serum containing antibodies for HIV-1 p24 is used to tag any p24 "captured" onto the microtiter well surface. Peroxidase conjugated goat anti-rabbit serum is then used to tag HIV-1 p24 specific rabbit antibodies which have complexed with captured p24. […] The cut-off for the p24 ELISA assay is 12. pg/ml. P24 in the culture medium was quantitated against a standard curve containing known amounts of p24. The effective (EC50) and inhibitory (IC50) concentrations (for anti-HIV activity and cytotoxicity, respectively) were determined graphically. Both the EC50 and IC50 values were calculated by plotting drug concentration versus percent inhibition, and then identifying a 50% inhibition value from the graph.

[2] = system: chronically HIV-1 infected ACH-2 cells; assay: Virus expression from chronically HIV-1 infected T cell line ACH-2 (p24 antigen ELISA); assay type: cell-based; settings: for effect on virus expression of PMA-stimulated ACH-2 cells (in words): with PMA; for induction of virus expression from ACH-2 cells (in words): without PMA
Experimental: (§1) Effects of suksdorfin analogs on Chronically HIV-1 infected cells. The experimental design is as follows: The phorbol ester, PMA (10^-8 M) and various concentrations of suksdorfin were either added or not added to both the chronically HIV-1 infected T cell line (ACH-2) and to the chronically HIV-1 infected monocytic cell line (U1). Cell-free supernatant was collected 72 hours post culture for p24 antigen ELISA.
Results (Table 11) from adding compound 16 to the chronically HIV-infected T cell line, ACH-2, according to methods in above examples. ACH-2 are a chronically HIV-1 infected T cell line. It was derived from A3.01 cells which is a subclone of the CEM cell line. The data below indicates the following points:
(§2) Chronically HIV-1 infected cell lines. HIV-1 chronically infected T cell line, ACH-2^12, and HIV-1 chronically infected promonocytic cell line, U1 13, were continuously maintained in RPMI 1640 with 10% fetal calf serum (FCS). For experiments, the cell lines were only used in the […] of growth. Cells (0.5×10^6 cells/well) and either various concentrations of suksdorfin or medium alone were added to 24-well plates in the presence or absence of PMA (10^-8 M). After 72 hours at 37° C. and 5% CO2, an aliquot of the cell-free supernatants were collected and analyzed for p24 antigen by ELISA (see below for details of p24 antigen ELISA).

[3] = system: chronically HIV-1 infected U1 cells; assay: Virus expression from chronically HIV-1 infected monocytic cell line U1 (p24 antigen ELISA); assay type: cell-based; settings: for effect on virus expression of PMA-stimulated U1 cells (in words): with PMA; for induction of virus expression from U1 cells (in words): without PMA
Experimental: as §1
Compound 16 was also assayed on ACH-2 (chronically HIV-1 infected T cell line). U1 cells are also chronically HIV-1 infected cells but they are from the monocytic cell line, U937. The data presented in Table 8 indicates the following points:
as §2

[4] = Human immunodeficiency virus 1, H9, Table 17, acutely infected H9 lymphocytes, read-out: EC50

Structure (SMILES): CC(=O)O[C@@H]1[C@H](OC(=O)CC(C)C)c2c(ccc3ccc(=O)oc23)OC1(C)C [Suksdorfin, suksdorfin]
- EC50 [1, 4]: 1300 nM
- EC50 ([1]; Human immunodeficiency virus 1, H9, acutely infected H9 cells, concentration which inhibits viral replication by 50%, Inactive = No suppression of HIV-1 replication in H9 cells, read-out: EC50): 1300 nM
- EC50 ([1]; Human immunodeficiency virus 1, H9, earlier value, read-out: EC50 (value before increase)): 0.5 to 0.8 µg/mL
- IC50 ([1]; Human immunodeficiency virus 1, Table 14, concentration which inhibits viral replication by 50%, Inactive = No suppression of HIV-1 replication in H9 cells, read-out: IC50 (μM)^b): 1.3 µM
- Therapeutic Index ([1]; IC50 for cell growth inhibition divided by EC50 for HIV inhibition, H9): > 40
- Therapeutic Index ([1]; Table 14): > 40.0
- Therapeutic Index ([1]; Table 17, H9): > 40
- anti-HIV activity in H9 cells (in words) [1]: suppressed virus replication
- anti-HIV activity in H9 cells (in words) ([1]; listed as 1): potent anti-HIV-1 activity at nontoxic concentrations
- P24 ([2]; ACH-2, +PMA, 0.16 μg/ml): 50,775 pg/ml
- P24 ([2]; ACH-2, +PMA, 0.8 μg/ml): 55,910 pg/ml
- P24 ([2]; ACH-2, +PMA, 4 μg/ml): 61,235 pg/ml
- P24 ([2]; ACH-2, +PMA, 20 μg/ml): 49,914 pg/ml
- P24 ([2]; ACH-2, -PMA, 0.16 μg/ml): 3,688 pg/ml
- P24 ([2]; ACH-2, -PMA, 0.8 μg/ml): 3,821 pg/ml
- P24 ([2]; ACH-2, -PMA, 4 μg/ml): 4,723 pg/ml
- P24 ([2]; ACH-2, -PMA, 20 μg/ml): 4,541 pg/ml
- effect on virus expression of PMA-stimulated ACH-2 cells (in words) [2]: no significant alteration in the level of virus expression
- effect on virus expression of PMA-stimulated ACH-2 cells (in words) ([2]; listed as 1): no alteration in the level of virus expression
- induction of virus expression from ACH-2 cells (in words) [2]: The answer is no
- induction of virus expression from ACH-2 cells (in words) ([2]; listed as 1): no increase in the induction of virus expression
- P24 ([3]; U1, +PMA, 0.16 μg/ml): 6,611 pg/ml
- P24 ([3]; U1, +PMA, 0.8 μg/ml): 7,360 pg/ml
- P24 ([3]; U1, +PMA, 4 μg/ml): 9,728 pg/ml
- P24 ([3]; U1, +PMA, 20 μg/ml): 5,096 pg/ml
- P24 ([3]; U1, -PMA, 0.16 μg/ml): 0 pg/mL
- P24 ([3]; U1, -PMA, 0.8 μg/ml): 0 pg/mL
- P24 ([3]; U1, -PMA, 4 μg/ml): 0 pg/mL
- P24 ([3]; U1, -PMA, 20 μg/ml): 0 pg/mL
- effect on virus expression of PMA-stimulated U1 cells (in words) [3]: no significant alteration in the level of virus expression
- effect on virus expression of PMA-stimulated U1 cells (in words) ([3]; listed as 1): no alteration in the level of virus expression
- induction of virus expression from U1 cells (in words) [3]: The answer is no
- induction of virus expression from U1 cells (in words) ([3]; listed as 1): no increase in the induction of virus expression

Structure (SMILES): CC1(C)Oc2ccc3ccc(=O)oc3c2[C@@H](OC(=O)[C@@]23CC[C@@](C)(C(=O)O2)C3(C)C)[C@H]1OC(=O)[C@@]12CC[C@@](C)(C(=O)O1)C2(C)C [Compound 16, 3',4'-Di-O-(-)-Camphanoyl-(+)-cis-Khellactone]
- suppression ([1]; 0.000256 μg/ml, separate assays, H9): 35%
- inhibition at 0.000256 µg/mL ([1]; Human immunodeficiency virus 1, H9, 0.000256 μg/ml, separate assays, H9, read-out: suppression): 44%
- EC50 ([1]; Human immunodeficiency virus 1, H9, H9, text to Table 7, read-out: EC50): ≥ 0.000256 µg/mL and 0.41 nM
- EC50 ([1]; Human immunodeficiency virus 1, H9, H9 lymphocytes, Table 3, read-out: ED^50 (the source's name)): ≥ 0.41 nM
- EC50 ([1]; Human immunodeficiency virus 1, H9, Table 3, H9 lymphocytes, read-out: EC50): 0.41 nM
- EC50 ([1]; Human immunodeficiency virus 1, H9, Table 7, read-out: EC5): 0.000256 µg/mL and 0.41 nM
- EC50 [1, 4]: 0.41 nM
- anti-HIV activity in H9 cells (in words) [1]: potent anti-HIV activity
- P24 ([2]; ACH-2, +PMA, 0.0000102 μg/ml): 17,938 pg/ml
- P24 ([2]; ACH-2, +PMA, 0.0000512 μg/ml): 16,079 pg/ml
- P24 ([2]; ACH-2, +PMA, 0.00025 μg/ml): 22,756 pg/ml
- P24 ([2]; ACH-2, +PMA, 0.00128 μg/ml): 22,344 pg/ml
- P24 ([2]; ACH-2, +PMA, 0.032 μg/ml): 24,650 pg/ml
- P24 ([2]; ACH-2, +PMA, 0.064 μg/ml [0.010 μM] (so in the source)): 24,364 pg/ml
- P24 ([2]; ACH-2, +PMA, 0.16 μg/ml): 21,865 pg/ml
- P24 ([2]; ACH-2, +PMA, 0.8 μg/ml): 20,183 pg/ml
- P24 ([2]; ACH-2, +PMA, 4 μg/ml): 23,547 pg/ml
- P24 ([2]; ACH-2, +PMA, 20 μg/ml): 24,858 pg/ml
- P24 ([2]; ACH-2, -PMA, 0.0000102 μg/ml): 666 pg/mL
- P24 ([2]; ACH-2, -PMA, 0.0000512 μg/ml): 659 pg/mL
- P24 ([2]; ACH-2, -PMA, 0.00025 μg/ml): 777 pg/mL
- P24 ([2]; ACH-2, -PMA, 0.00128 μg/ml): 811 pg/mL
- P24 ([2]; ACH-2, -PMA, 0.032 μg/ml): 1319 pg/mL
- P24 ([2]; ACH-2, -PMA, 0.064 μg/ml [0.010 μM] (so in the source)): 955 pg/mL
- P24 ([2]; ACH-2, -PMA, 0.16 μg/ml): 1174 pg/mL
- P24 ([2]; ACH-2, -PMA, 0.8 μg/ml): 976 pg/mL
- P24 ([2]; ACH-2, -PMA, 4 μg/ml): 1194 pg/mL
- P24 ([2]; ACH-2, -PMA, 20 μg/ml): 1509 pg/mL
- effect on virus expression of PMA-stimulated ACH-2 cells (in words) [2]: did not suppress virus replication
- induction of virus expression from ACH-2 cells (in words) [2]: did not induce the ACH-2 cells to make virus
- P24 ([3]; U1, +PMA, 0.0000102 μg/ml): 7328 pg/mL
- P24 ([3]; U1, +PMA, 0.0000512 μg/ml): 8710 pg/mL
- P24 ([3]; U1, +PMA, 0.00025 μg/ml): 7757 pg/mL
- P24 ([3]; U1, +PMA, 0.00128 μg/ml): 6335 pg/mL
- P24 ([3]; U1, +PMA, 0.0064 μg/ml): 6419 pg/mL
- P24 ([3]; U1, +PMA, 0.032 μg/ml): 8090 pg/mL
- P24 ([3]; U1, +PMA, 0.16 μg/ml): 7162 pg/mL
- P24 ([3]; U1, +PMA, 0.8 μg/ml): 8390 pg/mL
- P24 ([3]; U1, +PMA, 4 μg/ml): 8742 pg/mL
- P24 ([3]; U1, +PMA, 20 μg/ml): 9530 pg/mL
- P24 ([3]; U1, -PMA, 0.0000102 μg/ml): 52 pg/mL
- P24 ([3]; U1, -PMA, 0.0000512 μg/ml): 56 pg/mL
- P24 ([3]; U1, -PMA, 0.00025 μg/ml): 78 pg/mL
- P24 ([3]; U1, -PMA, 0.00128 μg/ml): 99 pg/mL
- P24 ([3]; U1, -PMA, 0.0064 μg/ml): 90 pg/mL
- P24 ([3]; U1, -PMA, 0.032 μg/ml): 101 pg/mL
- P24 ([3]; U1, -PMA, 0.16 μg/ml): 76 pg/mL
- P24 ([3]; U1, -PMA, 0.8 μg/ml): 88 pg/mL
- P24 ([3]; U1, -PMA, 4 μg/ml): 41 pg/mL
- P24 ([3]; U1, -PMA, 20 μg/ml): 95 pg/mL
- effect on virus expression of PMA-stimulated U1 cells (in words) [3]: did not suppress virus replication
- induction of virus expression from U1 cells (in words) [3]: did not induce the U1 cells to make virus

— US6319929A, “Suksdorfin analogs, compositions thereof, and methods for making and using thereof” (priority 1998, dated 2001)
